Source: publication PMC11558822, “Myc 9aaTAD activation domain binds to mediator of transcription with superior high affinity” (Molecular Medicine, 2024)
Residues, ends and D or L forms follow the SMILES beside them. No end group written: not given here. *: point of attachment. Biotin = O=C1N[C@H]2[C@H](CS[C@H]2CCCCC(=O)*)N1

Tests used:
[1] = molecular target: T1, KIX domain of CBP (Homo sapiens, UniProt Q92793); assay: Bio-layer interferometry (BLI) of immobilized 9aaTAD peptides with KIX domain; format: binding; details: for Kd: BLI Octet RED96e, biotinylated peptide on streptavidin SA biosensors, KIX 0.31-5.0 μM, 20 mM sodium phosphate pH 6.0, 50 mM NaCl, 30 °C, steady-state 1:1 fit, average of pentaplicate, read-out: KD(apparent)
T1 construct: GST (N, cleaved yes); His6 (N, cleaved yes); made in house
Experimental: Bio-layer interferometry on Octet RED96e (ForteBio) was used for the analysis of interaction between KIX domain and proposed activation domains. All experiments were performed at 30 °C at 1000 rpm shaking. Streptavidin-bearing SA biosensors (ForteBio) were immersed for 300 s into the assay buffer (20 mM sodium phosphate pH 6.0, 50 mM NaCl) containing 60 μM biotinylated MLL, MYC or NMY peptide, respectively. After subsequent wash in the assay buffer, the final steady response of ligand reached 0.6–0.8 nm. Parallel blank sensor was treated the same way with pure assay buffer being used instead of biotinylated peptide solution in the immobilization step. For the binding assay, all sensors were used in parallel applying the following procedure: 120 s baseline in the assay buffer, 180 s association in the assay buffer containing increasing concentration of KIX domain for each cycle (0.31, 0.63, 1.25, 2.5 and 5.0 μM), 240 s dissociation in the assay buffer and 3 repetitions of 30 s regeneration in 50 mM NaOH followed by 30 s assay buffer wash. Each binding experiment was performed in pentaplicate and the data were processed using Data Analysis 11.1 evaluation SW (ForteBio). Obtained binding curves were blank-subtracted and fitted by a 1:1 binding model using steady state analysis. Final KD (apparent) values were calculated as an average of all measurements.

[2] = tested on: lacZ reporter driven by the lexA operator; assay: One hybrid transactivation (β-galactosidase reporter) assay with LexA hybrids in yeast strain L40; format: cell-based, Saccharomyces cerevisiae; details: for ß-Gal: raw β-galactosidase activity; for Reporter activation (average value in %): β-galactosidase activity of LexA hybrid, % of positive control p53 construct 6p53 set to 100%, mean ± SD, n = 3; for normalized value in %: β-galactosidase, % of 6p53 mean; for activation function (times): one hybrid assay, presence versus absence of 9aaTAD (region 100–108) in the construct
[3] = replicate 1 (first sample of the construct)
[4] = replicate 2 (second sample of the construct)
[5] = replicate 3 (third sample of the construct)

T1 sequence (Q92793 587-666 limits assumed): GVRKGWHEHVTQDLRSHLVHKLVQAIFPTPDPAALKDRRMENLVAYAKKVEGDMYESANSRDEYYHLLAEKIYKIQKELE

Molecule: CC[C@H](C)[C@H](NC(=O)[C@H](CC(=O)O)NC(=O)[C@H](CO)NC(=O)[C@@H]1CCCN1C(=O)[C@H](CC(C)C)NC(=O)[C@@H](NC(=O)[C@H](CC(N)=O)NC(=O)[C@H](CO)NC(=O)CNC(=O)CCCC[C@@H]1SC[C@@H]2NC(=O)N[C@@H]21)[C@@H](C)CC)C(=O)N[C@@H](CCSC)C(=O)N[C@@H](CC(=O)O)C(=O)N[C@@H](Cc1ccccc1)C(=O)N[C@H](C(=O)N[C@@H](CC(C)C)C(=O)N[C@@H](CCCCN)C(=O)N[C@@H](CC(N)=O)C(=O)N[C@H](C(=O)O)[C@@H](C)O)C(C)C [MLL, reference compound] (Biotin-GSNILPSDIMDFVLKNT-OH)
- Kd [1]: 1170 ± 210 nM

Molecule: CSCC[C@H](NC(=O)[C@H](CCC(=O)O)NC(=O)[C@@H](NC(=O)[C@@H](NC(=O)[C@H](Cc1c[nH]c2ccccc12)NC(=O)[C@H](CO)NC(=O)[C@@H]1CCCN1C(=O)[C@@H]1CCCN1C(=O)[C@H](CCC(=O)O)NC(=O)[C@H](CO)NC(=O)[C@H](CO)NC(=O)[C@H](CO)NC(=O)CNC(=O)CCCC[C@@H]1SC[C@@H]2NC(=O)N[C@@H]21)C(C)C)[C@@H](C)O)C(=O)N[C@@H](CC(C)C)C(=O)N[C@@H](CC(C)C)C(=O)N[C@@H](CCC(=O)O)C(=O)N[C@@H](CC(N)=O)C(=O)O [N-Myc] (Biotin-GSSSEPPSWVTEMLLEN-OH)
- Kd [1]: 880 ± 110 nM

Molecule: CC(C)C[C@H](NC(=O)[C@H](CC(=O)O)NC(=O)[C@H](CC(=O)O)NC(=O)[C@H](CC(C)C)NC(=O)[C@H](CC(=O)O)NC(=O)[C@H](CC(C)C)NC(=O)[C@@H](NC(=O)[C@H](CC(=O)O)NC(=O)[C@H](Cc1c[nH]c2ccccc12)NC(=O)[C@H](CO)NC(=O)[C@@H](NC(=O)[C@H](CC(=O)O)NC(=O)CNC(=O)[C@H](CO)NC(=O)[C@H](CO)NC(=O)CNC(=O)CCCC[C@@H]1SC[C@@H]2NC(=O)N[C@@H]21)C(C)C)[C@@H](C)O)C(=O)N[C@@H](CC(=O)O)C(=O)O [Sp1-Ac] (Biotin-GSSGDVSWDTLDLDDLD-OH)
- Kd [1]: 9770 ± 1570 nM

Molecule: CSCC[C@H](NC(=O)[C@H](CCC(=O)O)NC(=O)[C@H](CC(C)C)NC(=O)[C@H](CCC(N)=O)NC(=O)[C@@H](NC(=O)[C@H](CO)NC(=O)[C@H](CO)NC(=O)[C@H](CO)NC(=O)CNC(=O)CCCC[C@@H]1SC[C@@H]2NC(=O)N[C@@H]21)[C@@H](C)O)C(=O)N[C@H](C(=O)N[C@H](C(=O)N[C@@H](CCC(=O)O)C(=O)N[C@@H](CC(C)C)C(=O)N[C@@H](CC(C)C)C(=O)NCC(=O)O)[C@@H](C)O)C(C)C [c-Myc] (Biotin-GSSSTQLEMVTELLG-OH)
- Kd [1]: 2160 ± 1170 nM

Molecule: Biotin—GSS- GQ VSWQ T LQLQ NLQ [native Sp1, biotinylated native Sp1 9aaTAD peptide, negative control for BLI, reference compound]
- Binding to KIX ([1]; BLI, KIX in the 3–16 μM range, negative control): did not bind

Molecule: c-Myc region 69-103: LexA hybrid construct of c-Myc region 69–103 without 9aaTAD (ELLPTPPLSPSRRSGLCSPSYVAVTPFSLRGDNDG; LexA fusion; UniProt P01106 69-103, looked up, fragment)
- ß-Gal [2, 3]: 74
- ß-Gal [2, 4]: 83
- ß-Gal [2, 5]: 71
- Reporter activation (average value in %) [2]: 29%
- normalized value in % [2, 3]: 27%
- normalized value in % [2, 4]: 31%
- normalized value in % [2, 5]: 26%

Molecule: c-Myc region 69-108: LexA hybrid construct of c-Myc region 69–108 with 9aaTAD (ELLPTPPLSPSRRSGLCSPSYVAVTPFSLRGDNDGGGGSF; LexA fusion; UniProt P01106 69-108, looked up, fragment)
- activation function (times) [2]: 3 times
- ß-Gal [2, 3]: 255
- ß-Gal [2, 4]: 241
- ß-Gal [2, 5]: 242
- Reporter activation (average value in %) [2]: 90%
- normalized value in % [2, 3]: 93%
- normalized value in % [2, 4]: 88%
- normalized value in % [2, 5]: 89%

Molecule: c-Myc region 98-108: LexA hybrid construct of alone-standing c-Myc 9aaTAD activation domain (RGDNDGGGGSF; also: LexA fusion; UniProt P01106 98-108, looked up, fragment)
- activation function (times) [2]: 67 times
- ß-Gal [2, 3]: 191
- ß-Gal [2, 4]: 185
- ß-Gal [2, 5]: 169
- Reporter activation (average value in %) [2]: 67%
- normalized value in % [2, 3]: 70%
- normalized value in % [2, 4]: 68%
- normalized value in % [2, 5]: 62%
